Assay results as given in PMC11998009, “Identification of a New FtsZ Inhibitor by Virtual Screening, Mechanistic Insights, and Structure–Activity Relationship Analyses” (ACS Infectious Diseases, 2025).
In brackets after ≈: the same amount, converted by molar mass. Read-outs that look alike come from different tables or passages of the source.

Tests used:
[1] = system: S. aureus ATCC25923 biofilms; test: Biofilm inhibition assay (CFU counting, CLSM); format: cell-based
[2] = biological target: T1, FtsZPa (Pseudomonas aeruginosa, UniProt P47204); test: FtsZPa GTPase activity; format: biochemical; set-up: made in house; host or cells: Escherichia coli BL21DE3
T1 sequence (P47204 1-394): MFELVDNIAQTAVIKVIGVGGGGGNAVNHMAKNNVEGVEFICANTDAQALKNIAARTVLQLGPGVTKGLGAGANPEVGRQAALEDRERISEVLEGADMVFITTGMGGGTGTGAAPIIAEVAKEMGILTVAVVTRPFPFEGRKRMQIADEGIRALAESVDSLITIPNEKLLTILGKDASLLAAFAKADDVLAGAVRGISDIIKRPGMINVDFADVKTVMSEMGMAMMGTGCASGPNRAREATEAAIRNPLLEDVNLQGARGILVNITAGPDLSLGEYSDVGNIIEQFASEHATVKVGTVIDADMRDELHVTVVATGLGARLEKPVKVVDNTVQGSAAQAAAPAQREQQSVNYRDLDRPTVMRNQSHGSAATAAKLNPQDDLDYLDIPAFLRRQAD

[3] = system: P. aeruginosa PAO1, K. pneumoniae ATCC13883, and A. baumannii ATCC19606; test: MIC of C11 with PAβN, Gram-negative panel as a whole; format: cell-based; conditions: efflux pump inhibitor PAβN present
[4] = system: K. pneumoniae ATCC13883; test: MIC / checkerboard with PaβN; format: cell-based
[5] = system: P. aeruginosa PAO1; test: MIC / checkerboard with PaβN; format: cell-based
[6] = system: S. aureus ATCC25923; test: MIC determination by 2-fold microdilution, resazurin method; format: cell-based, Staphylococcus aureus; conditions: S. aureus ATCC25923, single drug
[7] = MTT cell viability assay on CFBE41o-; conditions: human, CFBE41o- cells
[8] = system: CFBE41o- cells; test: MTT cell viability assay on CFBE41o-; conditions: CFBE41o-, 12.5 μM (4.8 μg/mL), 6 h
[9] = biological target: T2, S. aureus FtsZ protein (FtsZSa) (Staphylococcus aureus, UniProt P0A031); test: In vitro FtsZ GTPase activity (PK/LDH coupled assay); format: biochemical; set-up: Residual GTPase activity: concentration or dose not given beside the values
T2 construct: made in house; host or cells: Escherichia coli BL21DE3
T2 sequence (P0A031 1-390): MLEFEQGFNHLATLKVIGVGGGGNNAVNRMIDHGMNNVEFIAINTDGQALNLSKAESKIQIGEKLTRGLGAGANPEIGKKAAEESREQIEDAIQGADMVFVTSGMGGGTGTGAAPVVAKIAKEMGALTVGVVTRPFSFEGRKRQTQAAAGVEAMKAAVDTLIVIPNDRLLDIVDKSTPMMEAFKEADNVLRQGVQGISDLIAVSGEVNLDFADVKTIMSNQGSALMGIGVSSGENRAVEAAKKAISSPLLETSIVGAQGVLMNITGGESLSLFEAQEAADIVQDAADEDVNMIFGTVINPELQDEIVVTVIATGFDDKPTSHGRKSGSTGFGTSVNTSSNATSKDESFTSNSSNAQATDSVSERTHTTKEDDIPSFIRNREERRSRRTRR
Method: In vitro FtsZ GTPase activity
FtsZSa and FtsZPa were expressed and purified as previously described.13,14 GTPase activity was assayed at 30°C using a pyruvate kinase–L-lactic dehydrogenase (PK/LDH) spectrophotometric coupled assay, as previously described15 with minor modification. The reaction mixture was first set up to contain 50 mM MES […]
phosphoenolpyruvate, and 4.8 μM of FtsZ. The assay was initiated by the addition of 1 mM GTP. The experiments were performed in triplicate. The inhibitory concentration that reduced the enzymatic activity by half (IC50) was determined using Prism 10. […]

[10] = system: mammalian tubulin; test: Tubulin polymerization assay, fluorescence based; format: biochemical; conditions: for Vmax of tubulin polymerization: DMSO control 3.78
[11] = system: S. aureus ATCC25923; test: Galleria mellonella infection model
[12] = system: S. aureus TD276 expressing FtsZ-mCherry; test: FtsZ localization by fluorescence time-lapse microscopy; format: cell-based; conditions: 4 μg/mL C11, time-lapse; untreated 4%
[13] = system: S. aureus cystic fibrosis clinical isolates; test: MIC for CF clinical isolates; format: cell-based
[14] = system: A. baumannii ATCC19606; test: MIC / checkerboard with PaβN; format: cell-based

COc1ccc(Cc2nnc(SC3=CS(=O)(=O)c4ccccc43)o2)cc1 [C11]
Biofilm formation by CLSM and COMSTAT2 ([1]; 2 μg/mL): only slightly affected biofilm formation
Biofilm formation by CFU counting ([1]; 2- or 4-fold the MIC (4–8 μg/mL)): almost completely inhibit biofilm formation
Biofilm formation by CLSM and COMSTAT2 ([1]; 4 and 8 μg/mL): almost completely abolished it
Effect on FtsZPa GTPase activity [2]: did not interfere with the GTPase activity
MIC values in the presence of PAβN [3]: 1 to 16 µg/mL
MIC ([4]; K. pneumoniae ATCC13883, C11 alone): ≥ 128 µg/mL
MIC ([4]; Klebsiella pneumoniae, ATCC13883, K. pneumoniae ATCC13883, + PaβN […], read-out: MIC): 8 µg/mL
MIC ([4]; Klebsiella pneumoniae, ATCC13883, K. pneumoniae ATCC13883, C11 alone, read-out: MIC): ≥ 128 µg/mL
MIC ([5]; P. aeruginosa PAO1, C11 alone): ≥ 128 µg/mL
MIC ([5]; Pseudomonas aeruginosa, PAO1, P. aeruginosa PAO1, + PaβN 64 µg/ml, read-out: MIC): 16 µg/mL
MIC ([5]; Pseudomonas aeruginosa, PAO1, P. aeruginosa PAO1, + PaβN […], read-out: MIC): 1 µg/mL
MIC ([5]; Pseudomonas aeruginosa, PAO1, P. aeruginosa PAO1, C11 alone, read-out: MIC): ≥ 128 µg/mL
MIC S. aureus [6]: 2 µg/mL (≈ 5.18 µM)
MIC ([6]; Staphylococcus aureus): 2 µg/mL (≈ 5.18 µM)
viability at 6 h, 25 µM [7]: 65%
viability at 24 h, 25 µM [7]: 25%
Percentage of live cells (MTT) [8]: higher than 90%
Effect on FtsZSa GTPase activity [9]: did not affect the FtsZSa GTPase activity
Residual GTPase activity ([9]; S. aureus FtsZ protein): 82.2%
Vmax of tubulin polymerization ([10]; 5 μM): 3.5 mOD/min
Vmax of tubulin polymerization ([10]; 10 μM): 3 mOD/min
Decrease of tubulin polymerization ([10]; 25 μM (9.6 μg/mL), highest tested concentration): 20%
Vmax of tubulin polymerization ([10]; 25 μM): 2.8 mOD/min
Survival rate of infected larvae ([11]; 40 mg/kg 2 h after infection, 2 days postinfection, DMSO group 46%): 77%
Survival rate of infected larvae ([11]; 40 mg/kg, after 6 days): significantly higher than the mock-treated group
Survival rate of infected larvae ([11]; 40 mg/kg, three days postinfection, DMSO group 32%): 58%
Percentage of cells in which FtsZ was delocalized [12]: 60%
MIC ([13]; S. aureus BG8 MRSA, single drug): 2 µg/mL (≈ 5.18 µM)
MIC ([13]; S. aureus BG9 MRSA, single drug): 2 µg/mL (≈ 5.18 µM)
MIC ([13]; S. aureus BG10 MRSA, single drug): 2 µg/mL (≈ 5.18 µM)
MIC ([13]; Staphylococcus aureus, MRSA, S. aureus BG6 MRSA, read-out: MIC): 2 µg/mL (≈ 5.18 µM)
MIC ([13]; Staphylococcus aureus, MRSA, S. aureus BG7 MRSA smv, read-out: MIC): 4 µg/mL (≈ 10.4 µM)
MIC ([13]; Staphylococcus aureus, MRSA, S. aureus BG8 MRSA, single drug, read-out: MIC): 2 µg/mL (≈ 5.18 µM)
MIC ([13]; Staphylococcus aureus, MRSA, S. aureus BG9 MRSA, single drug, read-out: MIC): 2 µg/mL (≈ 5.18 µM)
MIC ([13]; Staphylococcus aureus, MRSA, S. aureus BG10 MRSA, single drug, read-out: MIC): 2 µg/mL (≈ 5.18 µM)
MIC ([13]; Staphylococcus aureus, S. aureus BG1, read-out: MIC): 2 µg/mL (≈ 5.18 µM)
MIC ([13]; Staphylococcus aureus, S. aureus BG2, read-out: MIC): 4 µg/mL (≈ 10.4 µM)
MIC ([13]; Staphylococcus aureus, S. aureus BG3, read-out: MIC): 4 µg/mL (≈ 10.4 µM)
MIC ([13]; Staphylococcus aureus, S. aureus BG4, read-out: MIC): 8 µg/mL (≈ 20.7 µM)
MIC ([13]; Staphylococcus aureus, S. aureus BG5, read-out: MIC): 8 µg/mL (≈ 20.7 µM)
MIC ([13]; Staphylococcus aureus, S. aureus SA1, read-out: MIC): 4 µg/mL (≈ 10.4 µM)
MIC ([13]; Staphylococcus aureus, S. aureus SA2, read-out: MIC): 4 µg/mL (≈ 10.4 µM)
MIC ([13]; Staphylococcus aureus, S. aureus SA3, read-out: MIC): 2 µg/mL (≈ 5.18 µM)
MIC ([13]; Staphylococcus aureus, S. aureus SA4, read-out: MIC): 2 µg/mL (≈ 5.18 µM)
MIC ([13]; Staphylococcus aureus, S. aureus SA5, read-out: MIC): 4 µg/mL (≈ 10.4 µM)
MIC ([13]; Staphylococcus aureus, S. aureus SA6, read-out: MIC): 2 µg/mL (≈ 5.18 µM)
MIC ([13]; Staphylococcus aureus, S. aureus SA7, read-out: MIC): 2 µg/mL (≈ 5.18 µM)
MIC ([13]; Staphylococcus aureus, S. aureus SA8, read-out: MIC): 2 µg/mL (≈ 5.18 µM)
MIC ([13]; Staphylococcus aureus, S. aureus SA9, read-out: MIC): 4 µg/mL (≈ 10.4 µM)
MIC ([13]; Staphylococcus aureus, S. aureus SA10, read-out: MIC): 2 µg/mL (≈ 5.18 µM)
MIC ([13]; Staphylococcus aureus, S. aureus SA11, read-out: MIC): 4 µg/mL (≈ 10.4 µM)
MIC ([13]; Staphylococcus aureus, S. aureus SA12, read-out: MIC): 4 µg/mL (≈ 10.4 µM)
MIC ([13]; Staphylococcus aureus, S. aureus SA13, read-out: MIC): 4 µg/mL (≈ 10.4 µM)
MIC ([13]; Staphylococcus aureus, S. aureus SA14, read-out: MIC): 2 µg/mL (≈ 5.18 µM)
MIC ([13]; Staphylococcus aureus, S. aureus SA15, read-out: MIC): 4 µg/mL (≈ 10.4 µM)
MIC ([13]; Staphylococcus aureus, S. aureus SA16, read-out: MIC): 4 µg/mL (≈ 10.4 µM)
MIC ([13]; Staphylococcus aureus, S. aureus SA17, read-out: MIC): 2 µg/mL (≈ 5.18 µM)
MIC ([13]; Staphylococcus aureus, S. aureus SA18, read-out: MIC): 4 µg/mL (≈ 10.4 µM)
MIC ([13]; Staphylococcus aureus, S. aureus SA19, read-out: MIC): 2 µg/mL (≈ 5.18 µM)
MIC ([13]; Staphylococcus aureus, S. aureus SA20, read-out: MIC): 4 µg/mL (≈ 10.4 µM)
MIC ([13]; Staphylococcus aureus, S. aureus SA21, read-out: MIC): 2 µg/mL (≈ 5.18 µM)
MIC ([13]; Staphylococcus aureus, S. aureus SA22, read-out: MIC): 2 µg/mL (≈ 5.18 µM)
MIC ([13]; Staphylococcus aureus, S. aureus SA23, read-out: MIC): 4 µg/mL (≈ 10.4 µM)
MIC ([13]; Staphylococcus aureus, S. aureus SA24, read-out: MIC): 2 µg/mL (≈ 5.18 µM)
MIC ([13]; Staphylococcus aureus, S. aureus SA25, read-out: MIC): 2 µg/mL (≈ 5.18 µM)
MIC ([13]; Staphylococcus aureus, panel of clinical isolates from cystic fibrosis patients, read-out: MIC values for the vast majority of the clinical isolates): 2 to 4 µg/mL (≈ 5.18 to 10.4 µM)
MIC ([14]; A. baumannii ATCC19606, C11 alone): ≥ 128 µg/mL
MIC ([14]; Acinetobacter baumannii, ATCC19606, A. baumannii ATCC19606, + PaβN 64 µg/ml, read-out: MIC): 1 µg/mL
MIC ([14]; Acinetobacter baumannii, ATCC19606, A. baumannii ATCC19606, C11 alone, read-out: MIC): ≥ 128 µg/mL
